Test results published in patent US20080039515A1, “Arylpyrazoles And Methods Of Using Same For Control Of Insect Pests That Bore Into Trees” (The Texas A&M University System, priority 2004, published 2008).
Like-named read-outs stand apart in the source and are kept apart here.

Tested on: Ips engravers beetles
Assay type: in vivo
Procedure: Study Sites: Two 20-year-old, recently thinned loblolly pine plantations were selected in Texas. Trees in one plantation were injected for use in a bolt study (Trial 1). Trees in ½ acre section of the second plantation were injected as part of a single-tree protection study (Trial 2). A staging area also was set up in the second plantation where bolts from the first plantation were exposed to bark beetles and wood borers.
Population Monitoring: A clear panel of acetate (10 cm wide by 25 cm long) was attached to the center of each bolt after deployment of bolts or 2 m high on standing trees after deployment of pheromone baits to monitor arrival of bark beetles. The top surface of each panel was coated entirely with Stikem Special® trapping compound (Michel and Pelton, Emeryville, Calif.). The traps were left in place for two weeks.
After 1 (May 24), 3 (July 19) and 5 (September) months post-injection, 5 trees of each treatment were felled and two 1.5 m long bolts were removed from the 3 m and 8 m heights of the bole. Because southern pine beetle (SPB) populations were extremely low in east Texas during the study year, Ips engravers were used as alternative bark beetles for this study. The bolts were transported to a 20-year-old loblolly plantation that was recently thinned and contained fresh slash material. Each bolt was placed about 1 m apart on discarded, dry pine bolts to maximize surface area available for colonization as well as to discourage predation by ground and litter-inhabiting organisms. To facilitate timely bark beetle colonization, packets of bark beetle pheromones (racemic ipsdienol +lanerione combination, ipsenol or cis-verbenol; Phero Tech, Inc., Delta, BC, Canada) were attached separately to three 1 m stakes evenly spaced in the study area. Racemic ipsdienol and cis-verbenol were used with the second series of bolts deployed in July. The packets were removed after 2 weeks when signs of attacks (boring dust) were observed on most test bolts, signaling that naturally-produced pheromones were present.
Treatment Evaluation: Trial 1. The first and second series of bolts were retrieved 2.5 and 3 weeks, respectively, after deployment, after observing many cerambycid attacks on most of the bolts. In the laboratory, two 10×50 cm strips (total=1000 cm^2) of bark were removed from each bolt. Several measurements were made relating to construction of nuptial chambers and egg galleries and development of brood: • 1. Number of unsuccessful attacks—penetration to phloem, but no egg galleries. • 2. Number of successful attacks—construction of nuptial chamber and at least one egg gallery extending from it. • 3. Number and lengths of egg galleries with brood galleries radiating from them. • 4. Number and lengths of egg galleries without brood galleries. • 5. Cerambycid activity, estimated by overlaying a 100 cm^2 grid over a portion of each bark strip and counting the number of squares overlapping area where cerambycids had fed.
Treatment efficacy was determined by comparing Ips beetle attacks and egg gallery length and cerambycid feeding on treated and untreated bolts. The data were transformed by log10(x+1) to satisfy criteria for normality and homoscedasticity (Zar 1984) and analyzed by GLM and the Fishers Protected LSD test using the Statview statistical program.

[1] = 1 month post-injection (May), bolt height 3 m
[2] = 1 month post-injection (May), bolt height 8 m
[3] = 3 months post-injection (July), bolt height 3 m
[4] = 3 months post-injection (July), bolt height 8 m
[5] = 3 months post-injection, bolt height 3 m
[6] = 3 months post-injection, bolt height 8 m
[7] = 5 months post-injection (Sept.), bolt height 3 m
[8] = 5 months post-injection (Sept.), bolt height 8 m

N#Cc1nn(-c2c(Cl)cc(C(F)(F)F)cc2Cl)c(N)c1[S+]([O-])C(F)(F)F (stereo not drawn) [Fip, 5-amino-3-cyano-1-(2,6-dichloro-4-trifluoromethylphenyl)-4-trifluoromethylsulfinylpyrazole]
Length of Egg Galleries Total [1]: 135.0
Length of Egg Galleries With Brood [1]: 70.6 cm
Length of Egg Galleries With Brood % of Total [1]: 52.3%
Length of Egg Galleries Without Brood [1]: 64.4 cm
Length of Egg Galleries Without Brood % of Total [1]: 47.7%
Mean # of Ips caught/trap [1]: 4.0
Number of Egg Galleries Total [1]: 33.6
Number of Egg Galleries With Brood % of Total [1]: 29.8%
Number of Egg Galleries With Brood No. [1]: 10.0
Number of Egg Galleries Without Brood % of Total [1]: 70.2%
Number of Egg Galleries Without Brood No. [1]: 23.6
Nuptial Chambers Total [1]: 21.0
Nuptial Chambers With Egg Galleries % of Total [1]: 51.4%
Nuptial Chambers With Egg Galleries No. [1]: 10.8
Nuptial Chambers Without Egg Galleries No. [1]: 10.2
Length of Egg Galleries Total [2]: 332.8
Length of Egg Galleries With Brood [2]: 183.2 cm
Length of Egg Galleries With Brood % of Total [2]: 55.0%
Length of Egg Galleries Without Brood [2]: 149.6 cm
Length of Egg Galleries Without Brood % of Total [2]: 45.0%
Mean # of Ips caught/trap [2]: 3.6
Number of Egg Galleries Total [2]: 73.0
Number of Egg Galleries With Brood % of Total [2]: 36.7%
Number of Egg Galleries With Brood No. [2]: 26.8
Number of Egg Galleries Without Brood % of Total [2]: 63.3%
Number of Egg Galleries Without Brood No. [2]: 46.2
Nuptial Chambers Total [2]: 25.8
Nuptial Chambers With Egg Galleries % of Total [2]: 89.9%
Nuptial Chambers With Egg Galleries No. [2]: 23.2
Nuptial Chambers Without Egg Galleries % of Total [2]: 10.1%
Nuptial Chambers Without Egg Galleries No. [2]: 2.6
Mean # of Ips caught/trap [3]: 4.8
Nuptial Chambers Total [3]: 12.6
Nuptial Chambers With Egg Galleries % of Total [3]: 22.2%
Nuptial Chambers With Egg Galleries No. [3]: 2.8
Nuptial Chambers Without Egg Galleries No. [3]: 9.8
Mean # of Ips caught/trap [4]: 4.6
Nuptial Chambers Total [4]: 21.0
Nuptial Chambers With Egg Galleries % of Total [4]: 8.6%
Nuptial Chambers With Egg Galleries No. [4]: 1.8
Nuptial Chambers Without Egg Galleries No. [4]: 19.2
Length of Egg Galleries Total [5]: 19.4
Length of Egg Galleries With Brood [5]: 0.0 cm
Length of Egg Galleries With Brood % of Total [5]: 0.0%
Length of Egg Galleries Without Brood [5]: 19.4 cm
Length of Egg Galleries Without Brood % of Total [5]: 100.0%
Number of Egg Galleries Total [5]: 5.6
Number of Egg Galleries With Brood % of Total [5]: 0.0%
Number of Egg Galleries With Brood No. [5]: 0.0
Number of Egg Galleries Without Brood % of Total [5]: 100.0%
Number of Egg Galleries Without Brood No. [5]: 5.6
Length of Egg Galleries Total [6]: 9.2
Length of Egg Galleries With Brood [6]: 1.0 cm
Length of Egg Galleries With Brood % of Total [6]: 10.9%
Length of Egg Galleries Without Brood [6]: 8.2 cm
Length of Egg Galleries Without Brood % of Total [6]: 89.1%
Number of Egg Galleries Total [6]: 3.0
Number of Egg Galleries With Brood % of Total [6]: 6.7%
Number of Egg Galleries With Brood No. [6]: 0.2
Number of Egg Galleries Without Brood % of Total [6]: 93.3%
Number of Egg Galleries Without Brood No. [6]: 2.8
Length of Egg Galleries Total [7]: 5.8
Length of Egg Galleries With Brood [7]: 3.4 cm
Length of Egg Galleries With Brood % of Total [7]: 58.6%
Length of Egg Galleries Without Brood [7]: 2.4 cm
Length of Egg Galleries Without Brood % of Total [7]: 41.4%
Mean # of Ips caught/trap [7]: 1.2
Number of Egg Galleries Total [7]: 1.0
Number of Egg Galleries With Brood % of Total [7]: 40.0%
Number of Egg Galleries With Brood No. [7]: 0.4
Number of Egg Galleries Without Brood % of Total [7]: 60.0%
Number of Egg Galleries Without Brood No. [7]: 0.6
Nuptial Chambers Total [7]: 8.0
Nuptial Chambers With Egg Galleries % of Total [7]: 7.5%
Nuptial Chambers With Egg Galleries No. [7]: 0.6
Nuptial Chambers Without Egg Galleries % of Total [7]: 92.5%
Nuptial Chambers Without Egg Galleries No. [7]: 7.4
Length of Egg Galleries Total [8]: 15.2
Length of Egg Galleries With Brood [8]: 13.0 cm
Length of Egg Galleries With Brood % of Total [8]: 85.5%
Length of Egg Galleries Without Brood [8]: 2.2 cm
Length of Egg Galleries Without Brood % of Total [8]: 14.5%
Mean # of Ips caught/trap [8]: 0.8
Number of Egg Galleries Total [8]: 2.0
Number of Egg Galleries With Brood % of Total [8]: 60.0%
Number of Egg Galleries With Brood No. [8]: 1.2
Number of Egg Galleries Without Brood % of Total [8]: 40.0%
Number of Egg Galleries Without Brood No. [8]: 0.8
Nuptial Chambers Total [8]: 6.6
Nuptial Chambers With Egg Galleries % of Total [8]: 18.2%
Nuptial Chambers With Egg Galleries No. [8]: 1.2
Nuptial Chambers Without Egg Galleries % of Total [8]: 81.8%
Nuptial Chambers Without Egg Galleries No. [8]: 5.4
